Results as given in article PMC3365014, “Specific Recognition of p53 Tetramers by Peptides Derived from p53 Interacting Proteins” (PLoS ONE, 2012).
“Also recorded” adds a separate entry of the source.

Tested on: FlAsH-labeled full-length p53 (M133L/V203A/N239Y/N268D)
Experiment: Fluorescence-monitored analytical ultracentrifugation sedimentation velocity
Format: binding
Conditions: 25–50 nM FlAsH-p53, peptide up to 500 µM or solubility limit; 25 mM NaPi pH 7.2, 150 mM NaCl, 10% glycerol, 10°C
Method: We tested whether the peptides that bind tetrameric p53CTD can bind specifically to tetrameric p53 in a mixture of the different oligomers. Testing the specificity of the peptides for tetrameric p53 must be performed at very low p53 concentrations (<100 nM), where a significant population of dimers is present in addition to the tetramers [21]. Therefore, we used fluorescence-monitored analytical ultracentrifugation sedimentation velocity experiments using FlAsH-labeled full-length p53. The fluorescent label on p53 enables working at nanomolar protein concentrations and allows for specific detection of the protein without interference from any other molecule in the solution.
We incubated FlAsH-p53 with different concentrations of the peptides and measured the sedimentation profiles of the protein (Figure 7). […] Sedimentation coefficients of∼2 S correspond to dimers and∼3 S correspond to tetramers. Presumably, sedimentation coefficients of up to∼4 S correspond to p53 tetramers bound to one or more peptide molecules. […] Most likely higher sedimentation coefficients (>4 S) correspond to higher-order oligomers of p53.
C-terminally FlAsH-tagged (CCPGCC) p53 was expressed and reacted with FlAsH-EDT2 as described [24]. This introduces a specific fluorescent label at the carboxy terminus of p53. The protein was dialyzed against 25 mM NaPi pH = 7.2, 150 mM NaCl, 14.2 mM β-mercaptoethanol, 0.2 mg/ml BSA and 10% glycerol. […] The measurements were performed in a Beckman-Coulter Optima XL-I ultracentrifuge with an Aviv fluorescence detection system [29] in SedVel60K-FDS fluorescence velocity cells. The samples were equilibrated in the cells at 10°C for 3 hours before centrifugation. The AUC run was performed as described [23], [48] and analyzed using SedFit software [56].

| Compound | AUC effect |
| --- | --- |
| CSCC[C@H](NC(=O)CNC(=O)[C@@H]1CCCN1C(=O)[C@H](CCC(N)=O)NC(=O)[C@H](CC(C)C)NC(=O)[C@@H](N)[C@@H](C)O)C(=O)N[C@@H](CCCNC(=N)N)C(=O)N[C@H](C(=O)N[C@@H](CCCNC(=N)N)C(=O)N[C@@H](CCSC)C(=O)N[C@@H](CC(C)C)C(=O)N[C@@H](CC(=O)O)C(=O)N[C@@H](CC(=O)O)C(=O)N[C@@H](Cc1ccc(O)cc1)C(=O)N[C@@H](CCC(=O)O)C(N)=O)C(C)C [Cul7(376–390)] | a specific shift of the tetramer peak was observed but at much higher concentrations, and no high-order oligomers were formed; also recorded: causes a shift of the tetramer peak at very high peptide concentrations; also recorded: Tetramer shift |
| CC[C@H](C)[C@H](NC(=O)[C@H](CCC(=O)O)NC(=O)[C@H](CCC(=O)O)NC(=O)[C@H](Cc1ccc(O)cc1)NC(=O)[C@H](CC(=O)O)NC(=O)[C@H](CC(=O)O)NC(=O)[C@H](CC(C)C)NC(=O)[C@H](CCSC)NC(=O)[C@H](CCCNC(=N)N)NC(=O)[C@@H](NC(=O)[C@H](CCCNC(=N)N)NC(=O)[C@H](CCSC)NC(=O)CN)C(C)C)C(=O)N[C@@H](CO)C(=O)N[C@@H](C)C(N)=O [PARC(386–400)] | a specific shift of the tetramer peak was observed but at much higher concentrations, and no high-order oligomers were formed; also recorded: Tetramer shift |
